The text below walks through data of a melting point compilation (Tetko et al.; mined from patent text by program, amines drawn as free bases though some values may be those of a salt).

Turning to `CC(=O)NC(C)(C)c1ccc(CN2CCN(c3ccc(F)cc3)CC2)cc1`, the melting point (usually the temperature, or range, at which the solid turns liquid) is 104 to 106 °C. Compound `CC(Oc1ccc(Cl)cc1)c1nnc(N2C(=O)N(C)CC2O)s1` (configuration not stated) returned a melting point of 147 to 149 °C.

In the case of `N#Cc1cc2c(cc1F)OCC21C(=O)N(Cc2ccccc2C(F)(F)F)c2ccccc21` (configuration not stated), the melting point fell in the range of 193 to 195 °C.

On to `COc1cc(-c2cn(Cc3ccccc3)c(=O)c3ccccc23)cc(OC)c1OC`, for which the melting point was 166 to 168 °C. For `CC(C)(Cc1c[nH]c2ccccc12)NCC(O)COc1ccccc1C#N` (configuration not stated), the melting point lay in the range of 120 to 123 °C.

Turning to `Cc1ccc(Br)c(S(C)(=O)=O)c1`, the melting point was 110 to 114 °C. Turning to `COC(=O)c1ccc(OCC(C)NCC(O)c2cccc(Cl)c2)cc1` (configuration not stated), the melting point lay in the range of 99 to 101 °C. Compound `Cn1ccnc1SCC(O)(Cn1cncn1)c1ccc(Cl)cc1Cl` (configuration not stated) displayed a melting point of 159 to 161 °C. Compound `CCCCCS(=O)(=O)NC(=O)/C(C)=C/c1ccc(OCCCOC)cc1Oc1ncc(Cl)cc1Cl` yielded a melting point of 116 to 117 °C.

On to `C#CC12CC3CC(C#C)(C1)CC(C#C)(C3)C2`, for which the melting point was 84 to 86 °C. In turn, `COc1ccc(-c2cccc3ccccc23)cc1OC1CCCC1` displayed a melting point of 123 to 125 °C. `CC(C)(CC(=O)O)C(=O)C(=O)O` had a melting point of 134 to 135 °C. For `O=[N+]([O-])c1ccc(Cl)c2cc[nH]c12`, the melting point was 166 to 167 °C. `NC(CF)(Cc1cc(O)ccc1O)C(=O)O` (configuration not stated) registered a melting point of 212 °C. For `COc1cc2c(cc1Nc1ncc(Cl)c(Nc3ccc(N4CCOCC4)cc3OC)n1)CCN(C(=O)CN(C)C)CC2` the value was 84 to 101 °C. For `CCc1nc(/C=C\c2cn(-c3ccccc3)nc2OCc2ccc(OCc3nc(-c4ccco4)oc3C)c(OC)c2)cs1` the value was 108 to 109 °C. In the case of `CON(Cc1ccc(C)c(F)c1)C(=O)C1=C(O)C(=O)N(C)C1`, the melting point was 145 °C. In turn, `CCOC(=O)COC1CCN(C(=O)[C@H](C)CC(=O)c2ccc(C#N)cc2)CC1` showed a melting point of 97 to 98 °C. On to `O=C(CO)c1ccc(F)c(F)c1Nc1ccc(I)cc1F`, for which the melting point came to 128 °C. Take `CC(=O)[C@H]1CC[C@H]2[C@@H]3CCC4=C/C(=N/OC(=O)[C@@H](NC(=O)OC(C)(C)C)C(C)C)CC[C@]4(C)[C@H]3CC[C@]12C`: the melting point lay within 147 to 149 °C. For the compound `CC(=O)NCc1ccc(/C=C/C(c2cc(Cl)cc(Cl)c2)C(F)(F)F)cc1` (configuration not stated), the melting point lay within 107 to 109 °C. The compound `O=[N+]([O-])C=Cc1ccsc1` showed a melting point of 94.5 to 96.5 °C. For the compound `O=C(NN1CCCN(C(=O)OCc2ccccc2)CC1)c1ccc(F)cc1`, the melting point fell in the range of 116 to 118 °C. For `Cc1cc(COc2ccc(S(=O)(=O)NC[C@@H](C(=O)NO)N3CCN(S(C)(=O)=O)CC3)cc2)c2ccccc2n1` the value was 185 °C. The figure for `O=C(O)c1cccc2c1CCc1cc(C(F)(F)F)ccc1S2` is 178 to 180 °C.

Regarding `CCc1ccc(C)cc1-n1cncc1C(=O)OC`, the melting point was in the range of 56 to 57 °C. For `COc1ccc(C2=NN(C3CCCCCC3)C(=O)[C@H]3CC=CC[C@@H]23)cc1OC(F)F` (relative stereo), the melting point is 83 °C. The figure for `O=C1NC(=S)SC1=Cc1cccc(OCc2ccc(C(=O)c3ccccc3)cc2)c1` is 212 to 214 °C; for `O=C(NCc1ccc(O)cc1)C12CC3CC(CC(C3)C1)C2` it is 196 to 198 °C. On to `CC(=CC(=O)c1ccccc1)NC(Cc1ccc(-c2cccc(CNCC(=O)c3ccccc3)c2)cc1)C(=O)O` (configuration not stated), for which the melting point amounted to 136 °C. In turn, `COc1ccccc1N1CCN(c2nc3c(cc2F)c(=O)c(C(=O)O)cn3-c2ccc(F)cc2)CC1` came in with a melting point of 272 to 273 °C. Turning to `CC(C)Cc1ccc(C(C)C(=O)NCCCNC2=NCCN2)cc1` (configuration not stated), the melting point fell in the range of 155 to 168 °C. The compound `CCOC(C#N)NC(=O)c1ccc(COC)cc1` (configuration not stated) showed a melting point of 99 to 100 °C. Compound `CC(C)(C)OC(=O)Cc1c(Cl)nc(N)nc1C#N` came in with a melting point of 107 to 109 °C. Turning to `COc1ccc2c(c1)CCC(CN1CCC(O)(Cc3ccc(C)cc3)CC1)C2` (racemic), the melting point was in the range of 91 to 94 °C. Compound `O=C1CCC(N2Cc3c(OCc4ccc(CN5CCN(S(=O)(=O)c6ccccc6)CC5)cc4)cccc3C2=O)C(=O)N1` (configuration not stated) yielded a melting point of 220 to 222 °C. The figure for `CS(=O)(=O)N1CCN(S(=O)(=O)c2ccc(-c3cccs3)cc2)[C@@H](C(=O)NOC2CCCCO2)C1` (some centres not stated) is 194 to 195 °C; for `O=C(O)c1cn(Cc2cnsn2)c2c(F)c(F)c(F)cc2c1=O` it is 220 to 222 °C; for `NC1=Nc2ccc([N+](=O)[O-])cc2C(c2ccccc2Cl)=NC1` it is 222 to 224 °C. `ClCCCOc1ccc(-n2ccnc2)cc1` showed a melting point of 53 to 55 °C. As for `CCCNC(=O)NCCc1c[nH]c2ccc(OC)cc12`, the melting point was in the range of 79 to 80 °C. As for `CCCCCCCCCCCCCCCCCCn1c(C)c(CC(=O)NN)c2cc(OC)ccc21`, the melting point fell in the range of 121 to 123 °C. As to `O=C(O)CCCCc1ccc(NS(=O)(=O)c2ccccc2)cn1`, the melting point fell in the range of 136 to 138 °C.

`CC1(C)CC(c2ccccn2)c2cc(C(N)=O)ccc2O1` (configuration not stated) registered a melting point of 96 to 98 °C. Compound `CN1C(=O)c2cc(Cl)ccc2N(C(=O)CCN2CCCC2)c2ccccc21` came in with a melting point of 118 to 120 °C. In turn, `O=C(O)C1CC(c2ccccc2)=NN1C(=O)CP(=O)(O)CCCCc1ccccc1` (single isomer, unassigned; (+)) displayed a melting point of 166 to 169 °C. The figure for `CN(C)CC(=O)N(C)c1cccc(-c2ccnc3c(C(=O)c4ccccc4)cnn23)c1` is 166 to 168 °C; for `CNC(=C[N+](=O)[O-])NCCSCc1ncccc1Cl` it is 166 °C; for `CNC(=O)CN(C)Cc1ccc(CCn2cnc3cc(-c4ccc(Cl)cc4)sc3c2=O)cc1` it is 146 to 149 °C.

Turning to `CSc1sc(-c2nccs2)c2c1C(=O)CCC2(C)C`, the melting point lay in the range of 188 to 190 °C. `COc1ccc(C2CSc3ccccc3NC2=O)cc1OC` (configuration not stated) came in with a melting point of 174 °C. `COc1cccc(-c2[nH]c3ccc(OCc4ccccc4)cc3c2C)c1` registered a melting point of 107 to 109 °C. Turning to `COc1ccc(C2=CC(=Nc3c(C)cc(C)cc3C)N(C)CN2)cc1OC`, the melting point lay within 165 to 166 °C. Regarding `Cc1cc2c(s1)CCCC(=O)N2`, the melting point was in the range of 133 to 135 °C.

The compound `CN1C(=S)C(CCC(=O)O)c2ccccc21` (configuration not stated) showed a melting point of 126 to 128 °C.

For `CS(=O)(=O)N1CCN(c2ccc(OC[C@H]3CCn4cc([N+](=O)[O-])nc4O3)cc2)CC1`, the melting point fell in the range of 149 to 151 °C. `Cc1ccc2c3ccccc3n(CC(O)CN3CCNCC3c3ccc(Cl)c(Cl)c3)c2c1` (configuration not stated) returned a melting point of 140 °C.

As for `Cc1cc(-c2cccc(S(F)(F)(F)(F)F)c2)c(S(C)(=O)=O)cc1C(=O)NC(=N)N`, the melting point was in the range of 169 to 175 °C. The figure for `O=C1CCCNc2ccc(Cl)cc21` is 103 to 104 °C; for `COc1ccc(C)cc1NC(=O)Nc1ccc(N2CCN(C(=O)OC(C)(C)C)C(C)C2)cc1` (configuration not stated) it is 167 to 168 °C. The figure for `O=C(O)c1csc(-c2cccc(Cn3cc(C4c5ccccc5C=Cc5ccccc54)c(=S)[nH]c3=O)c2)n1` is 165 °C; for `Clc1cnc2c(-c3ccccc3)nc(-c3ccccc3)nc2c1` it is 120 to 121 °C. Consider `CNC(=O)N1CC(Oc2ccccc2C(N)=O)C1`, for which the melting point was in the range of 236 to 240 °C. In turn, `CCNC(=O)n1nc(Oc2ccc([N+](=O)[O-])cc2)cc1C` returned a melting point of 105 to 107 °C. Compound `CCN(CC)C(=O)C1CCN(Cc2cnc3cc(NC(=O)c4ccc(-c5ccc(F)cc5)cc4)c(C)cc3c2)CC1` displayed a melting point of 203 °C. `CCOC(=O)CCc1ccc(CCNS(=O)(=O)c2ccc(Cl)cc2)cc1` gave a melting point of 61 to 62 °C.

`CCC(CC)(NCCCn1cnc(CO)c1)c1ccccc1` showed a melting point of 82 to 84 °C. For `COc1ccc(C2(CCO)CCN(C(=O)c3cc(OC)c(OC)c(OC)c3)C2)cc1OC` (configuration not stated) the value was 60 to 62 °C; for `COC(=O)C1=C(C)NC(C#N)=C(C(=O)OC)C1c1ccccc1[N+](=O)[O-]` (configuration not stated), 170 to 172 °C. As for `O=[N+]([O-])c1ccc(N2CCCNCC2)cc1`, the melting point fell in the range of 115 to 116 °C.

Turning to `COC(=O)C[C@H](Cc1ccc(-c2ccccc2)cc1)NC(=O)OC(C)(C)C`, the melting point is 86 to 87 °C. The figure for `CN1CCN2c3ncc(Br)cc3Cc3ccccc3C2C1` (configuration not stated) is 126 to 128 °C; for `N#Cc1ccc(N2C(=O)C3=CCCN3C2=O)c2ccccc12` it is 230 to 232 °C; for `Cn1ncc2c(=O)n3ccsc3nc21` it is 220 to 221 °C. Compound `S=C(Nc1ccccc1)N1CCc2[nH]cnc2C1` displayed a melting point of 205 °C. Turning to `CC(C)(C)OC(=O)n1cccc1-c1ccc2c(c1)C(C)(C)OC(=O)N2`, the melting point is 172 to 173 °C. Take `COC(=O)c1ccc2c(c1)SC(c1ccccc1)C(c1ccc3c(c1)NC(=O)CO3)=C2` (configuration not stated): the melting point lay within 217 to 219 °C. Turning to `COc1ccc(C(=O)N2CCc3sccc3C2c2ccc(OC(F)(F)F)cc2)cc1` (configuration not stated), the melting point was 68 to 70 °C.

`CCN(CC)c1ncnc2c1ncn2C1CC(F)C(CO)O1` (configuration not stated) registered a melting point of 114 to 115 °C.

Take `COC(=O)Nc1nc2ccc(Sc3ccccc3)cn2c1C(=O)C(F)(F)F`: the melting point was 171 to 173 °C. Turning to `O=C(CCCCCCC(c1ccccc1)(c1ccccc1)c1ccccc1)NO`, the melting point lay within 100 to 103 °C.

For `O=C(Oc1ccccc1)N1CCC(Sc2ccccc2F)CC1`, the melting point was in the range of 58 to 60 °C.

On to `CCOC(=O)c1cn(C2CC2)c2nc(N3C[C@@H](CNC(C)=O)[C@@H](Cl)C3)c(F)cc2c1=O` (relative stereo), for which the melting point lay within 213 to 214 °C. `CC(C)n1nnnc1CCCn1ccc2cc(NC(=O)c3nc4ccc(Cl)cc4n3Cc3ccccc3)ccc21`: the melting point is 190 to 191 °C. In turn, `Cc1nc2cc(NC(=O)c3ccccc3O)ccc2o1` returned a melting point of 202 to 206 °C.

Take `Nc1cc2cccnc2c(-c2cccc([N+](=O)[O-])c2)n1`: the melting point fell in the range of 221 to 223 °C. For the compound `O=C(NCCO)c1cc(-c2cccc3cc(Cc4cccc(C(F)(F)F)c4)sc23)ncn1`, the melting point lay within 46 to 47 °C.
